The target of assay [1] is T1, rMaBGA (Marinomonas sp. BSi20584, UniProt Z9SNG8Y577).
T1 construct: predicted signal peptide (first 28 aa) removed; codon-optimised, pET-28a(+), E. coli BL21(DE3), Ni-NTA purified, tag not reported cut; about 100 kDa on SDS-PAGE
T1 sequence (Z9SNG8Y577 29-897): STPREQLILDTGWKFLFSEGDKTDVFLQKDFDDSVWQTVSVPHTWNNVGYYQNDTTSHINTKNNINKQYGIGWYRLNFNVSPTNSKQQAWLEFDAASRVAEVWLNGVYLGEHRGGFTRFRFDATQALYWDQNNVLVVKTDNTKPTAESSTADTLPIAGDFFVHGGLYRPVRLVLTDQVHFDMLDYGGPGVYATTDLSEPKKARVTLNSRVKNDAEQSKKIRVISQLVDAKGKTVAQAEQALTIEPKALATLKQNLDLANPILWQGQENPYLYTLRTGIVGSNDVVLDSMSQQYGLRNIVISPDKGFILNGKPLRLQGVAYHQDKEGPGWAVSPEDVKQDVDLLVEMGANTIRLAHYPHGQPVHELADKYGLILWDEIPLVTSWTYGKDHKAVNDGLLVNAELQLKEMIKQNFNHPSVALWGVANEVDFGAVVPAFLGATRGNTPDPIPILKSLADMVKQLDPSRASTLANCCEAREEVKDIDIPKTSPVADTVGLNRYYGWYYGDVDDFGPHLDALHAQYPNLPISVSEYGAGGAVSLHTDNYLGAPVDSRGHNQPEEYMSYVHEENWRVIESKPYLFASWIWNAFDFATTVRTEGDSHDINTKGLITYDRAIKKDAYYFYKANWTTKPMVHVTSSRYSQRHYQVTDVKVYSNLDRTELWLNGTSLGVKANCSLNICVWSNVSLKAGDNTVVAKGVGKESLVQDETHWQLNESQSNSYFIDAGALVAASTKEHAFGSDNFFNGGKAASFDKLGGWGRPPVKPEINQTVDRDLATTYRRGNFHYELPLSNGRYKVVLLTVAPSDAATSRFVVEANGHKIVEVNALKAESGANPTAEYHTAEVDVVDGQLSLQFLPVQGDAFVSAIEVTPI
Briefly: steady-state kinetics, nonlinear Michaelis-Menten fit; galactose by coupled enzymatic assay. Type of assay: biochemical. Particulars: pH and temperature not stated. An excerpt: steady-state kinetics, nonlinear Michaelis-Menten fit; galactose by coupled enzymatic assay on rMaBGA

Assay [2] deals with T1, rMaBGA. As to the kind of experiment: steady-state kinetics, nonlinear Michaelis-Menten fit; o-nitrophenol absorbance at […] nm. Type of assay: biochemical. Particulars: 0.1–10 mM substrate; standard assay 10 mM PBS, 30 °C (not restated for kinetics).

As to `CC(=O)N[C@H]1C(O)O[C@H](CO)[C@@H](O)[C@@H]1O[C@@H]1O[C@H](CO)[C@H](O)[C@H](O)[C@H]1O` (stereo partly drawn) [Galβ-(1,3)-GlcNAc], the Km in assay [1] (1–40 mM substrate) turned out to be 2110 ± 484 µM.
Take `O=[N+]([O-])c1ccccc1O[C@@H]1O[C@H](CO)[C@H](O)[C@H](O)[C@H]1O` [ONPG]: the Km in assay [2] turned out to be 294 ± 44 µM.
On to `CC(=O)N[C@H]1C(O)O[C@H](CO)[C@@H](O[C@@H]2O[C@H](CO)[C@H](O)[C@H](O)[C@H]2O)[C@@H]1O` (stereo partly drawn) [Galβ-(1,4)-GlcNAc], for which the Km in assay [1] (1–50 mM substrate) worked out at 7020 ± 1180 µM.

Usually Km stands for the concentration of substrate that gives half-maximal velocity.
